{
  "source": "patent US10913727B2",
  "about": "“Modulators of the integrated stress pathway” (Calico Life Sciences LLC, priority 2016, dated 2021)",
  "data": [
    {"test_system": "HEK293T cells carrying the ATF4 luciferase reporter", "assay": "ATF4-Luc assay, in vitro model of Vanishing Cell White Matter Disease (VWMD)", "assay_type": "cell-based", "details": "Homo sapiens, HEK-293T, 1 μg/mL tunicamycin, 7 hours, One Glo luminescence", "outline": "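Reporter cells were stably generated by retroviral transduction and puromycin selection, then seeded at 30,000 cells/well. Next day, cells received 1 μg/mL tunicamycin with 200 nM test compound for 7 h, and luciferase luminescence was read with a one-step reagent. Values reported as EC50.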", "units": {"EC50": "nM"}, "values": [
      {"smiles": "O=C(COc1ccc(Cl)c(F)c1)NC12CC(NC(=O)c3ccn[nH]3)(C1)C2", "note": "[Compound 320, N-{3-[2-(4-chloro-3-fluorophenoxy)acetamido]bicyclo[1.1.1]pentan-1-yl}-1H-pyrazole-5-carboxamide]", "EC50": "1000 to 2000"},
      {"smiles": "O=C(COc1ccc(Cl)c(F)c1)NC12CCC(NC(=O)c3cc(C(F)(F)F)no3)(CC1)C[C@@H]2O", "note": "[Compound 704, N-{(3S)-4-[2-(4-chloro-3-fluorophenoxy)acetamido]-3-hydroxybicyclo[2.2.2]octan-1-yl}-3-(trifluoromethyl)-1,2-oxazole-5-carboxamide]", "EC50": "< 50"},
      {"smiles": "N#Cc1cnc(NC23CC(NC(=O)COc4ccc(Cl)c(F)c4)(C2)C3)cn1", "note": "[Compound 720, 2-(4-chloro-3-fluorophenoxy)-N-{3-[(5-cyanopyrazin-2-yl)amino]bicyclo[1.1.1]pentan-1-yl}acetamide]", "EC50": "> 2000"},
      {"smiles": "O=C(COc1ccc(Cl)c(F)c1)NC12CCC(NC(=O)c3cc(-c4c(F)cccc4F)no3)(CC1)CC2O", "note": "(stereo not drawn) [Compound 409, N-{4-[2-(4-chloro-3-fluorophenoxy)acetamido]-3-hydroxybicyclo[2.2.2]octan-1-yl}-3-(2,6-difluorophenyl)-1,2-oxazole-5-carboxamide]", "EC50": "50 to 250"},
      {"smiles": "O=C(COc1ccc(Cl)c(F)c1)NC12CCC(NC(=O)c3ccc4c(c3)OCO4)(CC1)C(O)C2", "note": "(stereo not drawn) [Compound 211, N-{4-[2-(4-chloro-3-fluorophenoxy)acetamido]-2-hydroxybicyclo[2.2.2]octan-1-yl}-2H-1,3-benzodioxole-5-carboxamide]", "EC50": "1000 to 2000"},
      {"smiles": "N#Cc1ccc(C(=O)NC23CCC(NC(=O)COc4ccc(Cl)c(F)c4)(CC2)CC3O)cc1", "note": "(stereo not drawn) [Compound 210, N-{4-[2-(4-chloro-3-fluorophenoxy)acetamido]-2-hydroxybicyclo[2.2.2]octan-1-yl}-4-cyanobenzamide]", "EC50": "250 to 1000"},
      {"smiles": "O=C(COc1ccc(Cl)c(F)c1)NC12CC(NC(=O)c3ccc(OC4COC4)nc3)(C1)C2", "note": "[Compound 237, N-{3-[2-(4-chloro-3-fluorophenoxy)acetamido]bicyclo[1.1.1]pentan-1-yl}-6-[(oxetan-3-yl)oxy]pyridine-3-carboxamide]", "EC50": "250 to 1000"},
      {"smiles": "COc1ccc(C(=O)NC23CC(NC(=O)COc4ccc(Cl)c(F)c4)(C2)C3)cn1", "note": "[Compound 154, N-{3-[2-(4-chloro-3-fluorophenoxy)acetamido]bicyclo[1.1.1]pentan-1-yl}-6-methoxypyridine-3-carboxamide]", "EC50": "250 to 1000"},
      {"smiles": "O=C(COc1ccc(Cl)c(F)c1)NC12CC(Nc3cc(-c4ccc(Cl)cc4)ccn3)(C1)C2", "note": "[Compound 415, 2-(4-chloro-3-fluorophenoxy)-N-(3-{[4-(4-chlorophenyl)pyridin-2-yl]amino}bicyclo[1.1.1]pentan-1-yl)acetamide]", "EC50": "> 2000"},
      {"smiles": "Cn1c(C(=O)NC23CC(NC(=O)COc4ccc(Cl)c(F)c4)(C2)C3)cc2ccccc21", "note": "[Compound 648, N-{3-[2-(4-chloro-3-fluorophenoxy)acetamido]bicyclo[1.1.1]pentan-1-yl}-1-methyl-1H-indole-2-carboxamide]", "EC50": "50 to 250"},
      {"smiles": "CCc1cc(C(=O)NC23CC(NC(=O)COc4ccc(Cl)c(Cl)c4)(C2)C3)n(C)n1", "note": "[Compound 584, N-{3-[2-(3,4-dichlorophenoxy)acetamido]bicyclo[1.1.1]pentan-1-yl}-3-ethyl-1-methyl-1H-pyrazole-5-carboxamide]", "EC50": "< 50"},
      {"smiles": "N#Cc1ccc(C(=O)NC23CCC(NC(=O)COc4ccc(Cl)c(F)c4)(CC2)CC3O)nc1", "note": "(stereo not drawn) [Compound 170, N-{4-[2-(4-chloro-3-fluorophenoxy)acetamido]-2-hydroxybicyclo[2.2.2]octan-1-yl}-5-cyanopyridine-2-carboxamide]", "EC50": "50 to 250"},
      {"smiles": "O=C(COc1ccc(Cl)c(F)c1)NC12CC(NC(=O)c3cc4n(n3)CCCN4)(C1)C2", "note": "[Compound 125, N-{3-[2-(4-chloro-3-fluorophenoxy)acetamido]bicyclo[1.1.1]pentan-1-yl}-4,5,6,7-tetrahydropyrazolo[1,5-a]pyrimidine-2-carboxamide]", "EC50": "> 2000"},
      {"smiles": "O=C(COc1ccc(Cl)c(F)c1)NC12CCC(NC(=O)c3cc(C4CC4)no3)(CC1)CC2O", "note": "(stereo not drawn) [Compound 327, N-{4-[2-(4-chloro-3-fluorophenoxy)acetamido]-3-hydroxybicyclo[2.2.2]octan-1-yl}-3-cyclopropyl-1,2-oxazole-5-carboxamide]", "EC50": "50 to 250"},
      {"smiles": "O=C(COc1ccc(Cl)c(F)c1)NC12CCC(NC(=O)c3ccc(OC(F)(F)F)nc3)(CC1)CC2O", "note": "(stereo not drawn) [Compound 451, N-{4-[2-(4-chloro-3-fluorophenoxy)acetamido]-3-hydroxybicyclo[2.2.2]octan-1-yl}-6-(trifluoromethoxy)pyridine-3-carboxamide]", "EC50": "< 50"},
      {"smiles": "Cc1cc2c(NC34CC(NC(=O)COc5cccc(F)c5)(C3)C4)nccn2n1", "note": "[Compound 640, 2-(3-fluorophenoxy)-N-{3-[(2-methylpyrazolo[1,5-a]pyrazin-4-yl)amino]bicyclo[1.1.1]pentan-1-yl}acetamide]", "EC50": "250 to 1000"},
      {"smiles": "CCn1nc(C(=O)NC23CC(NC(=O)COc4ccc(Cl)c(F)c4)(C2)C3)cc1C", "note": "[Compound 836, N-{3-[2-(4-chloro-3-fluorophenoxy)acetamido]bicyclo[1.1.1]pentan-1-yl}-1-ethyl-5-methyl-1H-pyrazole-3-carboxamide]", "EC50": "> 2000"},
      {"smiles": "COc1cc(C(=O)NC23CC(NC(=O)COc4ccc(Cl)c(F)c4)(C2)C3)n(C)n1", "note": "[Compound 651, N-{3-[2-(4-chloro-3-fluorophenoxy)acetamido]bicyclo[1.1.1]pentan-1-yl}-3-methoxy-1-methyl-1H-pyrazole-5-carboxamide]", "EC50": "50 to 250"},
      {"smiles": "O=C(COc1ccc(Cl)c(F)c1)NC12CC(NC(=O)c3ccc(F)c(F)c3)(C1)C2", "note": "[Compound 514, N-{3-[2-(4-chloro-3-fluorophenoxy)acetamido]bicyclo[1.1.1]pentan-1-yl}-3,4-difluorobenzamide]", "EC50": "50 to 250"},
      {"smiles": "Cc1ncc(C(=O)NC23CC(NC(=O)COc4ccc(Cl)c(Cl)c4)(C2)C3)s1", "note": "[Compound 585, N-{3-[2-(3,4-dichlorophenoxy)acetamido]bicyclo[1.1.1]pentan-1-yl}-2-methyl-1,3-thiazole-5-carboxamide]", "EC50": "50 to 250"},
      {"smiles": "O=C(COc1ccc(Cl)c(F)c1)NC12CC(NC(=O)c3cnc(C4CC4)cn3)(C1)C2", "note": "[Compound 266, N-{3-[2-(4-chloro-3-fluorophenoxy)acetamido]bicyclo[1.1.1]pentan-1-yl}-5-cyclopropylpyrazine-2-carboxamide]", "EC50": "50 to 250"},
      {"smiles": "CS(=O)(=O)c1cccc(C(=O)NC23CC(NC(=O)COc4ccc(Cl)c(F)c4)(C2)C3)c1", "note": "[Compound 813, N-{3-[2-(4-chloro-3-fluorophenoxy)acetamido]bicyclo[1.1.1]pentan-1-yl}-3-(methanesulfonyl)benzamide]", "EC50": "> 2000"},
      {"smiles": "Cc1cnc2cccc(C(=O)NC34CC(NC(=O)COc5ccc(Cl)c(F)c5)(C3)C4)c2n1", "note": "[Compound 843, N-{3-[2-(4-chloro-3-fluorophenoxy)acetamido]bicyclo[1.1.1]pentan-1-yl}-3-methylquinoxaline-5-carboxamide]", "EC50": "> 2000"},
      {"smiles": "O=C(COc1ccc(Cl)c(F)c1)NC12CCC(NC(=O)c3cccc(F)c3)(CC1)[C@@H](O)C2", "note": "[Compound 488, N-{(2S)-4-[2-(4-chloro-3-fluorophenoxy)acetamido]-2-hydroxybicyclo[2.2.2]octan-1-yl}-3-fluorobenzamide]", "EC50": "50 to 250"},
      {"smiles": "Cc1nc(C(=O)NC23CC(NC(=O)COc4ccc(Cl)c(F)c4)(C2)C3)c(C)o1", "note": "[Compound 795, N-{3-[2-(4-chloro-3-fluorophenoxy)acetamido]bicyclo[1.1.1]pentan-1-yl}-2,5-dimethyl-1,3-oxazole-4-carboxamide]", "EC50": "> 2000"},
      {"smiles": "CC(=O)N1CC=C(c2ncc(C(=O)NC34CC(NC(=O)COc5ccc(Cl)c(F)c5)(C3)C4)o2)CC1", "note": "[Compound 151, 2-(1-acetyl-1,2,3,6-tetrahydropyridin-4-yl)-N-{3-[2-(4-chloro-3-fluorophenoxy)acetamido]bicyclo[1.1.1]pentan-1-yl}-1,3-oxazole-5-carboxamide]", "EC50": "> 2000"},
      {"smiles": "Cc1cncc(C(=O)NC23CC(NC(=O)COc4ccc(Cl)c(Cl)c4)(C2)C3)n1", "note": "[Compound 737, N-{3-[2-(3,4-dichlorophenoxy)acetamido]bicyclo[1.1.1]pentan-1-yl}-6-methylpyrazine-2-carboxamide]", "EC50": "250 to 1000"},
      {"smiles": "O=C(COc1ccc(Cl)c(F)c1)NC12CCC(NC(=O)c3cc(C(F)F)no3)(CC1)C[C@@H]2O", "note": "[Compound 671, N-{(3S)-4-[2-(4-chloro-3-fluorophenoxy)acetamido]-3-hydroxybicyclo[2.2.2]octan-1-yl}-3-(difluoromethyl)-1,2-oxazole-5-carboxamide]", "EC50": "< 50"},
      {"smiles": "CC(C)(O)/C=C/c1ccnc(C(=O)NC23CC(NC(=O)COc4ccc(Cl)c(F)c4)(C2)C3)c1", "note": "[Compound 430, N-{3-[2-(4-chloro-3-fluorophenoxy)acetamido]bicyclo[1.1.1]pentan-1-yl}-4-[(1E)-3-hydroxy-3-methylbut-1-en-1-yl]pyridine-2-carboxamide]", "EC50": "> 2000"},
      {"smiles": "O=C(COc1ccc(Cl)c(F)c1)NC12CC(NC(=O)c3ccc[nH]3)(C1)C2", "note": "[Compound 307, N-{3-[2-(4-chloro-3-fluorophenoxy)acetamido]bicyclo[1.1.1]pentan-1-yl}-1H-pyrrole-2-carboxamide]", "EC50": "250 to 1000"},
      {"smiles": "O=C(COc1ccc(Cl)c(F)c1)NC12CCC(NC(=O)c3ccc(C(F)F)cn3)(CC1)C[C@@H]2O", "note": "[Compound 752, N-{(3S)-4-[2-(4-chloro-3-fluorophenoxy)acetamido]-3-hydroxybicyclo[2.2.2]octan-1-yl}-5-(difluoromethyl)pyridine-2-carboxamide]", "EC50": "< 50"},
      {"smiles": "O=C(COc1ccc(Cl)c(F)c1)NC12CC(Nc3cccc(-c4ccc(Cl)cc4)n3)(C1)C2", "note": "[Compound 398, 2-(4-chloro-3-fluorophenoxy)-N-(3-{[6-(4-chlorophenyl)pyridin-2-yl]amino}bicyclo[1.1.1]pentan-1-yl)acetamide]", "EC50": "> 2000"},
      {"smiles": "O=C(COc1ccc(Cl)c(Cl)c1)NC12CCC(NC(=O)c3cnc(-c4ccc(Cl)c(F)c4)o3)(C1)C2", "note": "[Compound 110, 2-(4-chloro-3-fluorophenyl)-N-{4-[2-(3,4-dichlorophenoxy)acetamido]bicyclo-[2.1.1]hexan-1-yl}-1,3-oxazole-5-carboxamide]", "EC50": "50 to 250"}
    ]}
  ]
}
